Test results published in paper PMC11345841, “Exploring 2-Sulfonylpyrimidine Warheads as Acrylamide Surrogates for Targeted Covalent Inhibition: A BTK Story” (Journal of Medicinal Chemistry, 2024).
Read-outs that look alike come from different tables or passages of the source.

Legend:
[1] = molecular target: T1, EPHA4 (Homo sapiens, UniProt P54764); experiment: KINOMEscan ScanTK; format: binding
T1 construct: purchased Eurofins DiscoverX KINOMEscan (scanTK)

[2] = molecular target: T2, EPHA8 (Homo sapiens, UniProt P29322); experiment: KINOMEscan ScanTK; format: binding
T2 construct: purchased Eurofins DiscoverX KINOMEscan (scanTK)
T2 sequence (P29322 28-1005): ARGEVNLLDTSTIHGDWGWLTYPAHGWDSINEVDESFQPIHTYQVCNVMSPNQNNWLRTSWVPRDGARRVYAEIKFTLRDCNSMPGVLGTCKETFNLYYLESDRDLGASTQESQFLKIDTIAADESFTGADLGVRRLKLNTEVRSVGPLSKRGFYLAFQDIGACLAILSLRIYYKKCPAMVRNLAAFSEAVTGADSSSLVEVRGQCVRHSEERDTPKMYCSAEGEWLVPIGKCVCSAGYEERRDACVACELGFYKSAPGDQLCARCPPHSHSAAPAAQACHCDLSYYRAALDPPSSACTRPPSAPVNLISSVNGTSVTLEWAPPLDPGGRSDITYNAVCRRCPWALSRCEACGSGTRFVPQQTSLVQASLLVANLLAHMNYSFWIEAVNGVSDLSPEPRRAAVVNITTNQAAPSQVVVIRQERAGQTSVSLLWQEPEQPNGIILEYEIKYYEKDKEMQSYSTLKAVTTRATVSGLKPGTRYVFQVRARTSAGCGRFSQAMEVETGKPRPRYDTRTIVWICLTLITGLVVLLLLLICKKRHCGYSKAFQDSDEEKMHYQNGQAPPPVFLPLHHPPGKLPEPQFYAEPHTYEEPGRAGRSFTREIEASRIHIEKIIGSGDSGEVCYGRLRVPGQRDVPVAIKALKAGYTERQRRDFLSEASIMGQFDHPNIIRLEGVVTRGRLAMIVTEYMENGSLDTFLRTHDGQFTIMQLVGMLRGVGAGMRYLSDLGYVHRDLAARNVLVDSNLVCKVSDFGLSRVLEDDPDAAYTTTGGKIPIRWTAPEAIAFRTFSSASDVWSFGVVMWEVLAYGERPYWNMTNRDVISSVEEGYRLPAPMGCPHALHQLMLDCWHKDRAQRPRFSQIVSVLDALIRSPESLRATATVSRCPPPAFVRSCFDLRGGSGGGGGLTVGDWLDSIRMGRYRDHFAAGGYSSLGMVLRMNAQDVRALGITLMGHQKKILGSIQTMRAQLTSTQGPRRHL

[3] = molecular target: T3, FES (Homo sapiens, UniProt P07332); experiment: KINOMEscan ScanTK; format: binding
T3 construct: purchased Eurofins DiscoverX KINOMEscan (scanTK)

[4] = molecular target: T4, FLT3 (Homo sapiens, UniProt P36888); experiment: KINOMEscan ScanTK; format: binding
T4 construct: purchased Eurofins DiscoverX KINOMEscan (scanTK)
T4 sequence (P36888 27-993): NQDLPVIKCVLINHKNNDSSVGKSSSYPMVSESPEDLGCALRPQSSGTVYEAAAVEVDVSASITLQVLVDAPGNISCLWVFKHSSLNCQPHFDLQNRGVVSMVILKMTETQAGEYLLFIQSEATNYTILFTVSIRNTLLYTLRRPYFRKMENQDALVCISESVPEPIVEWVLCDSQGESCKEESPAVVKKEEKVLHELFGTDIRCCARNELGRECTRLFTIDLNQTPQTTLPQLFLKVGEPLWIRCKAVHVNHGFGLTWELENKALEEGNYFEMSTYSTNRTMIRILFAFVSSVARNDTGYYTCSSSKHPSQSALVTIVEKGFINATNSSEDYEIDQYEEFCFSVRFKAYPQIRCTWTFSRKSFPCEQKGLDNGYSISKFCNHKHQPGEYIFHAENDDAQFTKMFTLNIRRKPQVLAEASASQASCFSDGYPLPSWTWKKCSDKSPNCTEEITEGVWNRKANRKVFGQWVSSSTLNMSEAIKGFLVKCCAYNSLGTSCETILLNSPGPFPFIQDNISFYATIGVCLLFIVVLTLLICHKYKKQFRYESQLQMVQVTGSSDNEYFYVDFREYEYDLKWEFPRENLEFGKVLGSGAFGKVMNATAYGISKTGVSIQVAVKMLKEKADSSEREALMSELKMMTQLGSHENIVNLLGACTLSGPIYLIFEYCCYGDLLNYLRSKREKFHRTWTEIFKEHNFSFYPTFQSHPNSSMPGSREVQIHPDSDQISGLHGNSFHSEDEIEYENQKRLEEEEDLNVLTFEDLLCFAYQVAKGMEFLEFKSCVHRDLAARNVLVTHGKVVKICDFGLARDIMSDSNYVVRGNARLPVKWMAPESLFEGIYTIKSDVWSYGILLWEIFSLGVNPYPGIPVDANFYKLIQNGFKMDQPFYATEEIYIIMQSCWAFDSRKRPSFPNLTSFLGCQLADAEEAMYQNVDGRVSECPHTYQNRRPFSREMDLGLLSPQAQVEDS

[5] = test system: TMD8 cells; experiment: RNA-seq gene expression; settings: for Expr Log Ratio: 8d versus Ibrutinib

T1 sequence (P54764 20-986): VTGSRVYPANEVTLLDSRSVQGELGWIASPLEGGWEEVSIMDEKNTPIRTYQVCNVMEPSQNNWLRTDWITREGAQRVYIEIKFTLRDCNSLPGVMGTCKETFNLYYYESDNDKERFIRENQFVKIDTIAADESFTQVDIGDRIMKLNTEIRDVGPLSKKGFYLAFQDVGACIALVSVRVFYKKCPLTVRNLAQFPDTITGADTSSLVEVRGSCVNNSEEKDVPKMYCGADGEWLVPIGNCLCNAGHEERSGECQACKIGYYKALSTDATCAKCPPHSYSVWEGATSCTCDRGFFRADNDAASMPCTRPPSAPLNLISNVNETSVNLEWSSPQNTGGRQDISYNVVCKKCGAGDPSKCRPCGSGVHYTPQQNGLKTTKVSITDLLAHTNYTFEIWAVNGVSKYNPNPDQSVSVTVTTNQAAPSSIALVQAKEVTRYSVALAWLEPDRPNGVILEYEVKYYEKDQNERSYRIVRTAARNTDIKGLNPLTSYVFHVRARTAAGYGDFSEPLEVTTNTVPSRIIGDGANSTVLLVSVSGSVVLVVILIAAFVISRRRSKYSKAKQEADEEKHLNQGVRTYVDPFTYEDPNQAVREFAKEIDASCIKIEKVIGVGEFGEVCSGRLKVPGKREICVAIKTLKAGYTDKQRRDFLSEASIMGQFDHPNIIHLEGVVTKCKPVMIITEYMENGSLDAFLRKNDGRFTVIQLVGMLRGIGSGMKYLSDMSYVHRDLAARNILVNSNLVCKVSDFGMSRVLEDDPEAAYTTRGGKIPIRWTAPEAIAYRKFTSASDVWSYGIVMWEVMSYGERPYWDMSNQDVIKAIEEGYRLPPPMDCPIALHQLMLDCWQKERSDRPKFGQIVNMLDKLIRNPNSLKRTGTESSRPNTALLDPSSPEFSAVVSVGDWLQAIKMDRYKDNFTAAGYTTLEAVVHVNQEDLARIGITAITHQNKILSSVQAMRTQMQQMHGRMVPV
T3 sequence (P07332 whole entry): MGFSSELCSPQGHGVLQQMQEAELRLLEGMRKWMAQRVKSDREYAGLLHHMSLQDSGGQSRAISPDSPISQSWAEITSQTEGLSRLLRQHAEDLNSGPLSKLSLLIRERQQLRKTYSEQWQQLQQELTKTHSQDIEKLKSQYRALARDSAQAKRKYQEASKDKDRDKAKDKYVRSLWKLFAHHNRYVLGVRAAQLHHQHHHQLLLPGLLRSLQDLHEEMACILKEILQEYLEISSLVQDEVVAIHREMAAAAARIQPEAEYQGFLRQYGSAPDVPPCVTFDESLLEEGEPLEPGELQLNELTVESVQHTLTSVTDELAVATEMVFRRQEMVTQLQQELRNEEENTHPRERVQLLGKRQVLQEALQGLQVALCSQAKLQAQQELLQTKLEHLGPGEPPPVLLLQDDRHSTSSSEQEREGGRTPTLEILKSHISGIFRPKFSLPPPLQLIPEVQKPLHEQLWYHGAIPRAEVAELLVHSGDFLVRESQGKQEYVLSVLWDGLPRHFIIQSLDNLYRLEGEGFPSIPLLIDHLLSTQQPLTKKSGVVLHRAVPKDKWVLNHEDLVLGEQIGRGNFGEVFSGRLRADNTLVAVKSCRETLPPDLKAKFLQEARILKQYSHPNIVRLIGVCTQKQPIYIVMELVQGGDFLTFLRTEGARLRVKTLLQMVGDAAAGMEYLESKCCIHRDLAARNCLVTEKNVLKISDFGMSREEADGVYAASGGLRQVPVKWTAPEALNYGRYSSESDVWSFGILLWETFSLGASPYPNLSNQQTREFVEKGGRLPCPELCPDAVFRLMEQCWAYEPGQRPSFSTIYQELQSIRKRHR

SMILES: CNC(=O)c1cnc(S(C)(=O)=O)nc1N1CCCC(n2nc(-c3ccc(Oc4ccccc4)cc3)c3c(N)ncnc32)C1 (centres unmarked) [Compound 8d, 4-(3-(4-Amino-3-(4-phenoxyphenyl)-1H-pyrazolo[3,4-d]pyrimidin-1-yl)piperidin-1-yl)-N-methyl-2-(methylsulfonyl)pyrimidine-5-carboxamide]
- %Control difference from compound Ib at 1 µM ([1]; @1000nM): 9%
- remaining binding at 1 µM ([1]; @1000nM, read-out: %Control): 100%
- remaining binding at 1 µM ([1]; read-out: %Control @1000nM): 100%
- difference in %Control versus compound Ib at 1 µM ([2]; @1000nM): 24%
- remaining binding at 1 µM ([2]; @1000nM, read-out: %Control): 93%
- remaining binding at 1 µM ([2]; read-out: %Control @1000nM): 93%
- difference in %Control versus compound Ib at 1 µM ([3]; @1000nM): 0%
- remaining binding at 1 µM ([3]; @1000nM, read-out: %Control): 100%
- remaining binding at 1 µM ([3]; read-out: %Control @1000nM): 100%
- difference in %Control from compound Ib at 1 µM ([4]; @1000nM): 32%
- remaining binding at 1 µM ([4]; @1000nM, read-out: %Control): 65%
- remaining binding at 1 µM ([4]; read-out: %Control @1000nM): 65%
- Expr Log Ratio ([5]; ACTN4): 0.022
- Expr Log Ratio ([5]; ACVR1C): -0.029
- Expr Log Ratio ([5]; APC): 0.064
- Expr Log Ratio ([5]; APOC1): -0.164
- Expr Log Ratio ([5]; ARHGAP31): 0.01
- Expr Log Ratio ([5]; ARNT2): 0.044
- Expr Log Ratio ([5]; AURKA): -0.004
- Expr Log Ratio ([5]; BLOC1S5): -0.004
- Expr Log Ratio ([5]; BMPR2): 0.081
- Expr Log Ratio ([5]; BRCA1): 0.248
- Expr Log Ratio ([5]; BRD7): 0.035
- Expr Log Ratio ([5]; BTRC): 0.281
- Expr Log Ratio ([5]; CD80): -0.429
- Expr Log Ratio ([5]; CDKN1A): -0.127
- Expr Log Ratio ([5]; COL1A1): -0.248
- Expr Log Ratio ([5]; CREBZF): -0.251
- Expr Log Ratio ([5]; CREM): -0.036
- Expr Log Ratio ([5]; CTR9): 0.099
- Expr Log Ratio ([5]; CYB561A3): -0.04
- Expr Log Ratio ([5]; DEF6): 0.017
- Expr Log Ratio ([5]; DNM1L): 0.002
- Expr Log Ratio ([5]; DTNBP1): 0.278
- Expr Log Ratio ([5]; DTX1): -0.178
- Expr Log Ratio ([5]; ECM1): 0.54
- Expr Log Ratio ([5]; EHD1): -0.044
- Expr Log Ratio ([5]; EIF2AK4): 0.093
- Expr Log Ratio ([5]; EIF2B5): -0.104
- Expr Log Ratio ([5]; ELAVL1): -0.071
- Expr Log Ratio ([5]; ESR1): -0.045
- Expr Log Ratio ([5]; ETS1): 0.064
- Expr Log Ratio ([5]; FECH): 0.061
- Expr Log Ratio ([5]; FGF2): 0.272
- Expr Log Ratio ([5]; FGFR4): -0.062
- Expr Log Ratio ([5]; FTO): -0.134
- Expr Log Ratio ([5]; GLIS2): -0.228
- Expr Log Ratio ([5]; GNB1): 0.033
- Expr Log Ratio ([5]; GNB2): -0.086
- Expr Log Ratio ([5]; GPI): -0.003
- Expr Log Ratio ([5]; GPNMB): 0.582
- Expr Log Ratio ([5]; GSTP1): -0.086
- Expr Log Ratio ([5]; H1-2): -0.09
- Expr Log Ratio ([5]; HDAC1): -0.011
- Expr Log Ratio ([5]; HDAC8): -0.281
- Expr Log Ratio ([5]; HNRNPAB): -0.136
- Expr Log Ratio ([5]; HSF2): -0.15
- Expr Log Ratio ([5]; HTATIP2): 0.03
- Expr Log Ratio ([5]; IL1A): 0.332
- Expr Log Ratio ([5]; ING1): -0.221
- Expr Log Ratio ([5]; KDM6B): -0.137
- Expr Log Ratio ([5]; LOX): -0.113
- Expr Log Ratio ([5]; LOXL2): 0.149
- Expr Log Ratio ([5]; MAPK8): -0.028
- Expr Log Ratio ([5]; MAPK9): 0.146
- Expr Log Ratio ([5]; MAPKAP1): -0.077
- Expr Log Ratio ([5]; MDM4): -0.082
- Expr Log Ratio ([5]; MED1): -0.016
- Expr Log Ratio ([5]; MESP1): -0.242
- Expr Log Ratio ([5]; MESP2): -0.023
- Expr Log Ratio ([5]; MFN2): -0.162
- Expr Log Ratio ([5]; MGAT3): -0.275
- Expr Log Ratio ([5]; MGAT5): 0.29
- Expr Log Ratio ([5]; MPZ): -0.137
- Expr Log Ratio ([5]; MTA3): -0.001
- Expr Log Ratio ([5]; NCL): -0.053
- Expr Log Ratio ([5]; NCOA2): 0.045
- Expr Log Ratio ([5]; NDRG2): 0.057
- Expr Log Ratio ([5]; NFIA): 0.254
- Expr Log Ratio ([5]; NFYB): 0.006
- Expr Log Ratio ([5]; NORAD): -0.057
- Expr Log Ratio ([5]; NR1H3): 0.155
- Expr Log Ratio ([5]; OIP5-AS1): 0.071
- Expr Log Ratio ([5]; PADI2): 0.089
- Expr Log Ratio ([5]; PCGF2): 0.108
- Expr Log Ratio ([5]; PDCD4): 0.188
- Expr Log Ratio ([5]; PIAS3): 0.008
- Expr Log Ratio ([5]; POR): -0.13
- Expr Log Ratio ([5]; PPIA): 0.046
- Expr Log Ratio ([5]; PTAFR): 0.465
- Expr Log Ratio ([5]; PTP4A3): -0.295
- Expr Log Ratio ([5]; PTPN2): 0.048
- Expr Log Ratio ([5]; RALA): -0.18
- Expr Log Ratio ([5]; REL): -0.144
- Expr Log Ratio ([5]; RELA): -0.006
- Expr Log Ratio ([5]; RNASEL): 0.378
- Expr Log Ratio ([5]; RPA1): 0.039
- Expr Log Ratio ([5]; RPS6KA5): -0.015
- Expr Log Ratio ([5]; SCX): 0.154
- Expr Log Ratio ([5]; SDCBP): 0.02
- Expr Log Ratio ([5]; SDHB): 0.024
- Expr Log Ratio ([5]; SP3): -0.093
- Expr Log Ratio ([5]; SP100): 0.189
- Expr Log Ratio ([5]; SPINT1): -0.109
- Expr Log Ratio ([5]; ST6GAL1): -0.01
- Expr Log Ratio ([5]; STS): 0.181
- Expr Log Ratio ([5]; TGFBR3): 0.172
- Expr Log Ratio ([5]; TGS1): 0.171
- expression of AHR target gene CYP1A1 ([5]; TMD8, 1 μM, 8 h): significantly downregulated
- number of genes unchanged vs DMSO ([5]; TMD8, 1 μM, 8 h): 14389 genes
- number of genes unchanged vs ibrutinib ([5]; TMD8, 1 μM, 8 h): 14881 genes
- number of genes reduced vs DMSO ([5]; TMD8, 1 μM, 8 h, FDR < 0.01, log2FC < -0.5): 274 genes
- number of genes increased vs DMSO ([5]; TMD8, 1 μM, 8 h, FDR < 0.01, log2FC > 0.5): 384 genes
- number of genes increased vs ibrutinib ([5]; TMD8, 1 μM, 8 h, p-value <0.01): 105 genes
- number of genes reduced vs ibrutinib ([5]; TMD8, 1 μM, 8 h, p-value <0.01): 61 genes
- Expr Log Ratio ([5]; TNF): -0.16
- Expr Log Ratio ([5]; TNFRSF11A): 0.052
- Expr Log Ratio ([5]; TP53): -0.035
- Expr Log Ratio ([5]; YWHAZ): 0.016
